# Values quoted from earlier work, collected in patent US20120043242A1, “Medicinal cannabis fatty foodstuff” (priority 2010, published 2012).
# Where two headings read alike, the source gives them in different places.
# Tests used:
# [1] = system: healthy individuals; details: healthy individuals / humans
# [2] = system: people who use cannabis; details: compared with the no cannabinoid and the TCH+CBD groups
Compound,anxiety and psychotic symptoms [1],decarboxylation of concentrated THCA-A in solution into Δ^9-THC (120 degrees C.),decarboxylation of concentrated THCA-A in solution into Δ^9-THC (140 degrees C.),decarboxylation of concentrated THCA-A in solution into Δ^9-THC (160 degrees C.),degradation of Δ^9-THC into cannabinol and dihydrocannabinol (160 degrees C.),degradation of Δ^9-THC into cannabinol and dihydrocannabinol (180 degrees C.),positive schizophrenia-like symptoms [2]
"C=C(C)[C@@H]1CCC(C)=C[C@H]1c1c(O)cc(CCCCC)cc1O [CBD, cannabidiol]",anxiolytic and to have antipsychotic properties,,,,,,
"CCCCCc1cc2c(c(O)c1C(=O)O)[C@@H]1C=C(C)CC[C@H]1C(C)(C)O2 [THCA-A, tetrahydrocannabinol carboxylic acid]",,Partial decarboxylation,Significant decarboxylation,Nearly complete decarboxylation,,,
"CCCCCc1cc(O)c2c(c1)OC(C)(C)[C@@H]1CCC(C)=C[C@@H]21 [Δ^9-THC, Tetrahydrocannabinol]",elevate levels of anxiety and psychotic symptoms,,,,some degradation,A significant percentage,higher levels
